Test results published in patent US10752624B2, “Kinase inhibitors” (Origenis GmbH, priority 2012, dated 2020).

How the values were obtained:
LRRK2 = LRRK2 (Homo sapiens, UniProt Q5S007); test: LRRK2-LRRK2 G2019S-Assay (LanthaScreen Eu Kinase Binding Assay); settings: 5 nM LRRK2, 10 nM tracer 236, 2 nM EU-Anti-GST antibody, 1 h at RT; read-out: LRRK2 Activities: IC50
Method in brief: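 Compound competition with Alexa Fluor 647 tracer 236 (10 nM) was measured after 1 h at room temperature, using 5 nM LRRK2 (wild type or mutant) bound to 2 nM Eu-anti-GST antibody. IC50 was derived from the acceptor/donor (665/615 nm) ratio using a variable-slope dose-response fit.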

SYK kinase = target: T1, SYK kinase (Homo sapiens, UniProt P43405); test: SYK Assay (OMNIA Kinase Assay, SOX peptide fluorescence); format: biochemical; settings: 1 mM ATP, 10 μM Omnia Peptide Substrate Tyr 7, 30° C., readings for 30 minutes; read-out: SYK Activities: IC50
T1 construct: purchased Invitrogen, Carlsbad
Protocol: In the assay OMNIA® KINASE ASSAY by Invitrogen Corporation (Carlsbad) the effect of invention of a compound on the phosphorylation is determined by measurement of fluorescence intensity of a chelation-enhanced fluorophore called SOX. Upon phosphorylation of the peptide by the kinase of interest, Mg2+ is chelated to form a bridge between the SOX moiety and the phosphate group that is transferred to the specific tyrosine on the peptide. The fluorescence intensity is directly proportional to the amount of peptide phosphorylation.
To the wells of an 384 well small volume plate (Greiner, Frickenhausen) are added (i) the compound under test in 5% DMSO/distilled water (2 μl), (ii) 16 μl of the master mix containing ATP, DTT, Kinase Reaction Buffer, Omina Peptide Substrate Tyr 7 resulting in a final concentration of 1 mM ATP, 0.2 mM DTT and 10 μM Peptide Substrate.
The Master Mix and the assay plate was incubated to reaction temperature before the measurement (30° C.). The reaction was started with addition of (iii) 2 μl 4 μg/ml SYK kinase (Invitrogen, Carlsbad). During measurement fluorescence intensity readings were collected using a TECAN M1000 at a wavelength of λex 360/λem 485 nm every 30 s for 30 minutes. The reaction velocity was plotted versus the inhibitor concentration to determine the IC50 using XLFit 5.0 (IDBS, Guildford) to fit to a sigmoidal dose response curve.

Chain of LRRK2 (Q5S007 970-2527 limits assumed): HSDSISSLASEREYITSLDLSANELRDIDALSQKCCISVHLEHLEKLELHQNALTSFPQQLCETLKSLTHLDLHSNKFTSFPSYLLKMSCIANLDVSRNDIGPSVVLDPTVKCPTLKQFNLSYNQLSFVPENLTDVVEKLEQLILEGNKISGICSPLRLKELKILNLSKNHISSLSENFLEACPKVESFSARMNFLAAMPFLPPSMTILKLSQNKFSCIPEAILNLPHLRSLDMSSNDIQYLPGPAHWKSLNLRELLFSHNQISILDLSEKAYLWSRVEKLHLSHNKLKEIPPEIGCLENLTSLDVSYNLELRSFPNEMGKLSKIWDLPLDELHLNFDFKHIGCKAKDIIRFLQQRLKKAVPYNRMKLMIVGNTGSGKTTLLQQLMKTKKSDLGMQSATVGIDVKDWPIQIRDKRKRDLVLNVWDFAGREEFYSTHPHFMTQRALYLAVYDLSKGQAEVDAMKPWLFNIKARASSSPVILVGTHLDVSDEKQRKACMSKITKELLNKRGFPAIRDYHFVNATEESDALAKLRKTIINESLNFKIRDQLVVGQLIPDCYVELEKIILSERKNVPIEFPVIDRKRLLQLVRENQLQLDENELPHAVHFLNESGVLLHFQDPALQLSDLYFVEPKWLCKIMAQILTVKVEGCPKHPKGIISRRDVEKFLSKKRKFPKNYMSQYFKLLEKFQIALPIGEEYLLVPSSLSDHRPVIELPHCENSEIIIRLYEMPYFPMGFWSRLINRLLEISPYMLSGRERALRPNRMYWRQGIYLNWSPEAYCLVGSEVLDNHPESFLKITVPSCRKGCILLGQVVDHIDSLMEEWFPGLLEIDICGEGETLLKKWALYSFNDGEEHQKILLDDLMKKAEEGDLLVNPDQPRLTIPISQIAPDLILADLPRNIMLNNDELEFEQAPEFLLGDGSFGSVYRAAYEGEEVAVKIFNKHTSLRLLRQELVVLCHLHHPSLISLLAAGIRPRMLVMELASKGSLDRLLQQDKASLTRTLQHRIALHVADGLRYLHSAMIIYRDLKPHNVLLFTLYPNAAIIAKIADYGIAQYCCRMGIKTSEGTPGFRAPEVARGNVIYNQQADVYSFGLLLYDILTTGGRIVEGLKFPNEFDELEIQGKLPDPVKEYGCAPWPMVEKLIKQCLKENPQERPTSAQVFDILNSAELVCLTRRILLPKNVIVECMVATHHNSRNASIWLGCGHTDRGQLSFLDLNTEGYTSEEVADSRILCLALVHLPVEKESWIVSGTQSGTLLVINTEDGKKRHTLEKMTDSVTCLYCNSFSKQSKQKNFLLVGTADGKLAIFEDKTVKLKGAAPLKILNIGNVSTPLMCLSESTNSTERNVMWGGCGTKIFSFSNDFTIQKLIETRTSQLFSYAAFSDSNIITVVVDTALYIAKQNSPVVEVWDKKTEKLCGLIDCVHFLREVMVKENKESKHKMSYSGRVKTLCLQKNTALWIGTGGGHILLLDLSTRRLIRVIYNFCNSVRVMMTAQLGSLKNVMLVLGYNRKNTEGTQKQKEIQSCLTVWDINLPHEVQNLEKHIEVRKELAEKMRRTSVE

Compound | IC50 (LRRK2) [µM] | IC50 (SYK kinase) [µM]
Cc1ccc2nc(Nc3ccc(N4CCOCC4)cc3)c3[nH]ncc3c2c1 [Example 74, 8-methyl-N-(4-morpholinophenyl)-3H-pyrazolo[3,4-c]quinolin-4-amine] | 0.01 to 0.1 | 0.1 to 1
CC(C)n1ncc(Nc2nc3ccc(S(C)(=O)=O)cc3c3cn[nH]c23)c1C#N [Example 247, 1-isopropyl-4-((8-(methylsulfonyl)-3H-pyrazolo[3,4-c]quinolin-4-yl)amino)-1H-pyrazole-5-carbonitrile] | < 0.01 | 0.1 to 1
COc1cccc2nc(Nc3cnn(C(C)(C)C#N)c3)c3[nH]ncc3c12 [Example 184, 2-(4-((9-methoxy-3H-pyrazolo[3,4-c]quinolin-4-yl)amino)-1H-pyrazol-1-yl)-2-methylpropanenitrile] | < 0.01 | 0.01 to 0.1
CS(=O)(=O)c1ccc2c(c1)nc(Nc1cnn(C3CC3)c1)c1[nH]ncc12 [Example 197, N-(1-cyclopropyl-1H-pyrazol-4-yl)-7-(methylsulfonyl)-3H-pyrazolo[3,4-c]quinolin-4-amine] | 0.01 to 0.1 | 0.01 to 0.1
COc1cccc2nc(Nc3ccc(-c4cnco4)cc3)c3[nH]ncc3c12 [Example 57, 9-methoxy-N-(4-(oxazol-5-yl)phenyl)-3H-pyrazolo[3,4-c]quinolin-4-amine] | 0.01 to 0.1 | 0.1 to 1
COc1cccc2nc(Nc3cnn(CC(C)C)c3)c3[nH]ncc3c12 [Example 198, N-(1-isobutyl-1H-pyrazol-4-yl)-9-methoxy-3H-pyrazolo[3,4-c]quinolin-4-amine] | < 0.01 | 0.1 to 1
CC(=O)N1CCN(c2ccc(Nc3nc4ccc(C)cc4c4cn[nH]c34)cc2)CC1 [Example 73, 1-(4-(4-((8-methyl-3H-pyrazolo[3,4-c]quinolin-4-yl)amino)phenyl)piperazin-1-yl)ethan-1-one] | 0.01 to 0.1 | 0.1 to 1
CSc1ccc2nc(Nc3ccc(N4CCN(C(C)=O)CC4)cc3)c3[nH]ncc3c2c1 [Example 46, 1-(4-(4-((8-(methylthio)-3H-pyrazolo[3,4-c]quinolin-4-yl)amino)phenyl)piperazin-1-yl)ethan-1-one] | 0.01 to 0.1 | 0.1 to 1
COc1nn(C(C)C)cc1Nc1nc2ccc(S(C)(=O)=O)cc2c2cn[nH]c12 [Example 226, N-(1-isopropyl-3-methoxy-1H-pyrazol-4-yl)-8-(methylsulfonyl)-3H-pyrazolo[3,4-c]quinolin-4-amine] | < 0.01 | 0.1 to 1
CS(=O)(=O)c1cccc2nc(Nc3cnn(C4CCOCC4)c3)c3[nH]ncc3c12 [Example 108, 9-(methylsulfonyl)-N-(1-(tetrahydro-2H-pyran-4-yl)-1H-pyrazol-4-yl)-3H-pyrazolo[3,4-c]quinolin-4-amine] | 0.01 to 0.1 | 0.1 to 1
CC(C)(O)Cn1cc(Nc2nc3ccc(S(C)(=O)=O)cc3c3cn[nH]c23)cn1 [Example 262, 2-methyl-1-(4-((8-(methylsulfonyl)-3H-pyrazolo[3,4-c]quinolin-4-yl)amino)-1H-pyrazol-1-yl)propan-2-ol] | < 0.01 | 0.01 to 0.1
COc1ccc2nc(Nc3cnn(C)c3)c3n[nH]cc3c2c1 [Example 83, 8-methoxy-N-(1-methyl-1H-pyrazol-4-yl)-2H-pyrazolo[3,4-c]quinolin-4-amine] | 0.01 to 0.1 | 0.1 to 1
COCCCn1cc(Nc2nc3ccc(OC)cc3c3cn[nH]c23)cn1 [Example 287, 8-methoxy-N-(1-(3-methoxypropyl)-1H-pyrazol-4-yl)-3H-pyrazolo[3,4-c]quinolin-4-amine] | < 0.01 | 0.01 to 0.1
COCCCn1cc(Nc2nc3ccc(S(C)(=O)=O)cc3c3cn[nH]c23)c(OC)n1 [Example 231, N-(3-methoxy-1-(3-methoxypropyl)-1H-pyrazol-4-yl)-8-(methylsulfonyl)-3H-pyrazolo[3,4-c]quinolin-4-amine] | 0.01 to 0.1 | 0.1 to 1
COc1cccc2nc(Nc3cnn(C4CC4)c3)c3[nH]ncc3c12 [Example 201, N-(1-cyclopropyl-1H-pyrazol-4-yl)-9-methoxy-3H-pyrazolo[3,4-c]quinolin-4-amine] | < 0.01 | 0.1 to 1
COc1cc(OC)c2nc(Nc3ccc(N4CCOCC4)cc3)c3[nH]ncc3c2c1 [Example 288, 6,8-dimethoxy-N-(4-morpholinophenyl)-3H-pyrazolo[3,4-c]quinolin-4-amine] | 0.01 to 0.1 | 0.1 to 1

Second part, the compound after the results:

IC50 (LRRK2) [µM] | IC50 (SYK kinase) [µM] | Compound
0.01 to 0.1 | 0.1 to 1 | COc1ccc2nc(Nc3cnn(C4CCN(C(C)(C)C)CC4)c3)c3[nH]ncc3c2c1 [Example 300, N-(1-(1-(tert-butyl)piperidin-4-yl)-1H-pyrazol-4-yl)-8-methoxy-3H-pyrazolo[3,4-c]quinolin-4-amine]
0.1 to 1 | 0.1 to 1 | COc1cccc2c1nc(Nc1cnn(C3CCOCC3)c1)c1[nH]ncc12 [Example 307, 6-methoxy-N-(1-(tetrahydro-2H-pyran-4-yl)-1H-pyrazol-4-yl)-3H-pyrazolo[3,4-c]quinolin-4-amine]
0.01 to 0.1 | 0.1 to 1 | COc1cccc2nc(Nc3cnn(CC(=O)N(C)C)c3)c3[nH]ncc3c12 [Example 339, 2-(4-((9-methoxy-3H-pyrazolo[3,4-c]quinolin-4-yl)amino)-1H-pyrazol-1-yl)-N,N-dimethylacetamide]
0.01 to 0.1 | 0.1 to 1 | COCC(COC)n1cc(Nc2nc3ccc(OC)cc3c3c[nH]nc23)cn1 [Example 313, N-(1-(1,3-dimethoxypropan-2-yl)-1H-pyrazol-4-yl)-8-methoxy-2H-pyrazolo[3,4-c]quinolin-4-amine]
< 0.01 | < 0.01 | CS(=O)(=O)c1ccc2nc(Nc3cnn(C4CCNC4)c3)c3n[nH]cc3c2c1 (stereo not shown) [Example 327, 8-(methylsulfonyl)-N-(1-(pyrrolidin-3-yl)-1H-pyrazol-4-yl)-2H-pyrazolo[3,4-c]quinolin-4-amine]
< 0.01 | 0.01 to 0.1 | CS(=O)(=O)c1ccc2nc(Nc3ccc(N4CCN(CCO)CC4)cc3)c3[nH]ncc3c2c1 [Example 309, 2-(4-(4-((8-(methylsulfonyl)-3H-pyrazolo[3,4-c]quinolin-4-yl)amino)phenyl)piperazin-1-yl)ethan-1-ol]
0.01 to 0.1 | 0.01 to 0.1 | COc1ccc2nc(Nc3cnn(C4CC4)c3)c3[nH]ncc3c2c1 [Example 293, N-(1-cyclopropyl-1H-pyrazol-4-yl)-8-methoxy-3H-pyrazolo[3,4-c]quinolin-4-amine]
0.01 to 0.1 | < 0.01 | CS(=O)(=O)c1ccc2nc(Nc3ccc(O)cc3)c3n[nH]cc3c2c1 [Example 349, 4-((8-(methylsulfonyl)-2H-pyrazolo[3,4-c]quinolin-4-yl)amino)phenol]
0.01 to 0.1 | 0.1 to 1 | COCCCn1cc(Nc2nc3c(OC)cc(OC)cc3c3cn[nH]c23)cn1 [Example 290, 6,8-dimethoxy-N-(1-(3-methoxypropyl)-1H-pyrazol-4-yl)-3H-pyrazolo[3,4-c]quinolin-4-amine]
0.01 to 0.1 | < 0.01 | COc1ccc2nc(Nc3cnn(C4CCNC4)c3)c3n[nH]cc3c2c1 (stereo not shown) [Example 312, 8-methoxy-N-(1-(pyrrolidin-3-yl)-1H-pyrazol-4-yl)-2H-pyrazolo[3,4-c]quinolin-4-amine]
